“Also recorded” adds a separate entry of the source. Where two headings read alike, the source gives them in different places.
Columns and labels:
[1] = cited from earlier work
t-tau/p-tau181p = assay: CSF total tau / p-tau181P, Study ALZ1005; assay type: in vivo, human; conditions: for CSF P-tau percent change from baseline at day 28, Mean (SD) / CSF P-tau percent change from baseline at day 28, Median (range) / CSF total tau percent change from baseline at day 28, Mean (SD) / CSF total tau percent change from baseline at day 28, Median (range): Caucasian early AD
Experimental: In addition, exploratory measurements of plasma/CSF levels of APP fragments (sAPPα, sAPPβ, and total sAPP) and CSF levels of BACE1, t-tau, and p-tau were performed.
Baseline Aβ1–42, p-tau181P, and t-tau concentrations were measured using Innotest® Phospho-TAU181P, Innotest® hTAU Ag, and Innotest® β-AMYLOID1–42 (Innogenetics/Fujirebio, Ghent, Belgium) and the Luminex analytical platform (Luminex Corp., Austin, TX, USA). CSF samples from both the ALZ1005 (Caucasian) and ALZ1008 (Japanese) studies were analyzed in the same laboratory setting using the same assays and analytical platform. Diagnostic threshold CSF concentrations for AD vs. normal controls for Aβ1–42 were applied to the current sample set to judge the likelihood of having cerebral amyloid plaque deposition.
Treatment effect on plasma/CSF Aβ as compared with placebo was estimated by 95% CI for percent changes from baseline in each of the Aβ fragments (Aβ1–37, Aβ1–38, Aβ1–40, and Aβ1–42) in CSF and plasma. For primary and secondary biomarkers, day 28% changes from baseline, the least squares (LS) means (converted to original units), and treatment differences relative to placebo (with corresponding 95% CI) were analyzed on the basis of an analysis of covariance model that included treatment group and baseline score as a covariate. Day 28 changes from baseline in CSF tau/p-tau were summarized using descriptive statistics. Data were summarized and plotted by dose group, and exposure-response relationship was explored. […] Variability of predose baseline parameters vs. day 28 individual CSF ratios of Aβ1–42 to Aβ1–40 across treatment groups was explored graphically. Analyses were performed on individual populations of preclinical AD and MCI due to AD as well as the combined population of early AD.

[2] = Plasma and CSF pharmacokinetics, population PK modeling, Study ALZ1005; assay type: in vivo, human; conditions: for Kp at 28 day: CSF / free plasma; for concentration at 28 day: CSF, read-out: C28d, CSF concentration at Day 28, Mean (SD); for AUC: read-out: Plasma AUCτ, Day 28, Mean (SD); for Cmax: read-out: Plasma Cmax, Day 28, Mean (SD)
Experimental: CSF and plasma collection and processing, as well as apolipoprotein E (APOE) ε4 genotyping, are described in Additional file 2. Population PK modeling from sparse PK samples collected in the ALZ1005 Study was performed to derive individual steady-state maximum plasma concentration [Cmax] and area under the concentration-time profile during the dosing interval at steady state [AUC from 0 to 24 hours postdosing]. This model was also used to derive PK/PD simulations of CSF Aβ1–40 reduction (described in “Pharmacokinetic/pharmacodynamic relationship” section below).
The lower limit of quantification (LLOQ) was 1 ng/ml.

[3] = human, in vivo, 4 weeks
Experimental: (§1) Safety and tolerability were assessed during the study by recording adverse events (AEs), clinically significant abnormalities, clinical laboratory tests, ECG, and vital signs and by performing physical, neurological, and MRI examinations. All enrolled participants were included in the safety analysis population.

[4] = Clinical safety, Study ALZ1008; conditions: Japanese preclinical AD
Experimental: as §1

[5] = human, plasma, oral, Caucasian early AD, 10 mg q.d., population PK modeling
[6] = human, plasma, oral, Caucasian early AD, 50 mg q.d., population PK modeling

For C[C@@]1(c2cc(NC(=O)c3ccc(C#N)cn3)ccc2F)C=CSC(N)=N1 [atabecestat], the “plasma atabecestat free fraction” value [1] is given as 6%, the “changes in CSF t-tau or p-tau over 4-week treatment” value (t-tau/p-tau181p; 10-mg and 50-mg doses, Caucasian and Japanese) is given as “no relevant changes” and the “CSF P-tau percent change from baseline at day 28, Mean (SD)” value (t-tau/p-tau181p; 10 mg daily) is given as 3.56 (4.797) %. For the same compound, the “CSF P-tau percent change from baseline at day 28, Median (range)” value (t-tau/p-tau181p; 10 mg daily) was 3.45 (− 4.6; 11.5) %, the “CSF total tau percent change from baseline at day 28, Mean (SD)” value (t-tau/p-tau181p; 10 mg daily) was 4.18 (7.629) % and the “CSF total tau percent change from baseline at day 28, Median (range)” value (t-tau/p-tau181p; 10 mg daily) was 6.76 (− 11.2; 16.1) %. The “CSF P-tau percent change from baseline at day 28, Mean (SD)” value (t-tau/p-tau181p; 50 mg daily) was 7.36 (3.648) %, the “CSF P-tau percent change from baseline at day 28, Median (range)” value (t-tau/p-tau181p; 50 mg daily) was 7.42 (1.6; 16.7) % and the “CSF total tau percent change from baseline at day 28, Mean (SD)” value (t-tau/p-tau181p; 50 mg daily) was 8.02 (6.557) %. The “CSF total tau percent change from baseline at day 28, Median (range)” value (t-tau/p-tau181p; 50 mg daily) was 7.64 (− 4.5; 23.4) %, the “CNS penetrance of unbound drug” value ([2]; Caucasian and Japanese early AD) was “high central nervous system penetrance of unbound drug; also recorded: high CNS penetrance of unbound drug” and the CL/F ([2]; Caucasian early AD (preclinical AD and MCI due to AD), 10 and 50 mg q.d., population PK estimate, intersubject CV 30%) was 8.32 L/h. For the same compound, the “DN AUCτ (dose normalization to 5 mg), Day 28, Mean (SD)” value ([2]; Caucasian early AD, 10 mg q.d.) was 616 (185) ng.h/mL, the “DN C28d (CSF, dose normalization to 5 mg), Mean (SD)” value ([2]; Caucasian early AD, 10 mg q.d.) was 1.54 (0.52) ng/mL and the “DN Cmax (dose normalization to 5 mg), Day 28, Mean (SD)” value ([2]; Caucasian early AD, 10 mg q.d.) was 55 (10) ng/mL. The “DN AUCτ (dose normalization to 5 mg), Day 28, Mean (SD)” value ([2]; Caucasian early AD, 50 mg q.d.) was 620 (171) ng.h/mL, the “DN C28d (CSF, dose normalization to 5 mg), Mean (SD)” value ([2]; Caucasian early AD, 50 mg q.d.) was 1.51 (0.71) ng/mL and the PK linearity ([2]; both populations, 10 and 50 mg) was “linear PK”. For the same compound, the Kp at 28 day ([2]; human, oral, Caucasian early AD, 10 mg q.d., simulated plasma concentration, free fraction 6%, read-out: Ratio C28d (CSF)/free plasma, Mean (SD)) was 0.789, the Kp at 28 day ([2]; human, oral, Caucasian early AD, 50 mg q.d., simulated plasma concentration, free fraction 6%, read-out: Ratio C28d (CSF)/free plasma, Mean (SD)) was 0.892 and the Kp at 28 day ([2]; human, oral, Caucasian early AD, 10-mg and 50-mg groups together, day 28) was 0.84. For the same compound, the concentration at 28 day ([2]; human, oral, Caucasian early AD, 10 mg q.d.) was 3.08 ng/mL, the concentration at 28 day ([2]; human, oral, Caucasian early AD, 50 mg q.d.) was 15.1 ng/mL and the Tmax at 28 day [2, 5] was 1.7 h. For the same compound, the AUC [2, 5] was 1230 ng·h/mL, the Cmax [2, 5] was 110 ng/mL and the AUC [2, 6] was 6200 ng·h/mL. The Cmax [2, 6] was 550 ng/mL, the Tmax ([2]; human, plasma, oral, Caucasian early AD, 50 mg q.d., population PK modeling, read-out: Plasma Tmax, Day 28) was 1.8 h and the “TEAE incidence (genital herpes)” value [3] was 5.6%. The “incidence of SAE” value [4] was “no reported incidence of SAE” and the “changes in QTcF” value ([4]; no changes from baseline > 30-ms) was “no clinically significant changes”.

Source: article PMC6106931 (Alzheimer's Research & Therapy, 2018)
